Test results published in patent US20230085307A1, “PYRIDAZINONE COMPOUND AND HERBICIDE” (NISSAN CHEMICAL CORPORATION, priority 2019, published 2023).

Legend:
[1] = system: southern crabgrass; test: Test Example 4: herbicidal effect by soil treatment (Table 19, symbol F); assay type: in vivo, southern crabgrass (Digitaria ciliaris); details: amount of applied herbicide 320 g/ha
Summary of the method: (§1)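 In this soil treatment, the formulated compound reached the seeds only through the soil: seeds were buried about 1.5 cm deep in sterilized diluvial soil, then the diluted emulsion was sprayed over the surface. After three weeks at 25° C. to 30° C. in a greenhouse, effects were graded on criteria from an earlier test.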

[2] = system: barnyard grass; test: Test Example 4: herbicidal effect by soil treatment (Table 19, symbol H); assay type: in vivo, barnyard grass (Echinochloa crus-galli); details: amount of applied herbicide 320 g/ha
Summary of the method: as §1

[3] = system: barnyard grass; test: Test Example 3: herbicidal effect by foliage application, Wagner pot (Table 18, symbol H); assay type: in vivo, barnyard grass (Echinochloa crus-galli); details: for herbicidal effect on barnyard grass (H): 320 g/ha
Summary of the method: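 Plants were sown in alluvial soil held under 0.1–0.5 cm standing water and grown 14 days in a greenhouse at 25–30 °C. An emulsifiable formulation, water-diluted to the set dose, was then sprayed onto the foliage, and effects were scored three weeks later using previously defined criteria.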

[4] = system: wild oat; test: Test Example 5: herbicidal effect by foliage application, plastic box (Table 20, symbol I); assay type: in vivo, wild oat (Avena fatua); details: for I: wild oat, herbicidal effect grade: foliage application, three weeks after application
Summary of the method: (§2)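 Plants were sown into sterilized diluvial soil under about 1.5 cm cover and kept in a greenhouse at 25° C. to 30° C. Fourteen days on, foliage received an even spray of the diluted emulsion. Herbicidal or crop effect was judged three weeks afterwards.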

[5] = system: blackgrass; test: Test Example 5: herbicidal effect by foliage application, plastic box (Table 20, symbol J); assay type: in vivo, blackgrass (Alopecurus myosuroides); details: for J: blackgrass, herbicidal effect grade: foliage application, three weeks after application
Summary of the method: as §2

[6] = system: redroot pigweed; test: Test Example 5: herbicidal effect by foliage application, plastic box (Table 20, symbol N); assay type: in vivo, redroot pigweed (Amaranthus retroflexus); details: for N: redroot pigweed, herbicidal effect grade: foliage application, three weeks after application
Summary of the method: as §2

[7] = system: southern crabgrass; test: Test Example 5: herbicidal effect by foliage application, plastic box (Table 20, symbol F); assay type: in vivo, southern crabgrass (Digitaria ciliaris); details: for F: southern crabgrass, herbicidal effect grade: foliage application, three weeks after application
Summary of the method: as §2

[8] = system: Japanese bulrush; test: Test Example 2: herbicidal activity, application during weed generation under submerged conditions (Table 17, symbol B); assay type: in vivo, Japanese bulrush (Schoenoplectus juncoides); details: AAH 320 g/ha; application during weed generation, submerged conditions
Summary of the method: (§3)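 Effect on each weed is rated three weeks post-treatment, using the same scoring criteria as the preceding test. Plants grow from mixed-sown seed in flooded alluvial soil (4 cm water) at 25° C. to 30° C., and are treated at one to two leaves with diluted emulsion dropped onto the water.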

[9] = system: green foxtail; test: Test Example 5: herbicidal effect by foliage application, plastic box (Table 20, symbol G); assay type: in vivo, green foxtail (Setaria viridis); details: for G: green foxtail, herbicidal effect grade: foliage application, three weeks after application
Summary of the method: as §2

[10] = system: persian speedwell; test: Test Example 5: herbicidal effect by foliage application, plastic box (Table 20, symbol R); assay type: in vivo, Persian speedwell (Veronica persica); details: for R: persian speedwell, herbicidal effect grade: foliage application, three weeks after application
Summary of the method: as §2

[11] = system: late watergrass; test: Test Example 2: herbicidal activity, application during weed generation under submerged conditions (Table 17, symbol A); assay type: in vivo, late watergrass (Echinochloa oryzicola); details: AAH 320 g/ha; application during weed generation, submerged conditions
Summary of the method: as §3

[12] = system: oval-leafed pondweed; test: Test Example 1: herbicidal activity, application before weed generation under submerged conditions (Table 16, symbol C); assay type: in vivo, oval-leafed pondweed (Monochoria vaginalis); details: amount of applied herbicide 320 g/ha
Summary of the method: (§4)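 Emulsion formulation, water-diluted to set dose, was put onto the flooded surface (4 cm depth, alluvial soil) the same day weeds were sown and 2.5-leaf rice transplanted. After 3 weeks at 25-30 °C under glass, each species was rated 0 (≤5% kill) to 5 (≥90% kill).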

[13] = system: chickweed; test: Test Example 4: herbicidal effect by soil treatment (Table 19, symbol P); assay type: in vivo, common chickweed (Stellaria media); details: amount of applied herbicide 320 g/ha
Summary of the method: as §1

[14] = system: blackgrass; test: Test Example 4: herbicidal effect by soil treatment (Table 19, symbol J); assay type: in vivo, blackgrass (Alopecurus myosuroides); details: amount of applied herbicide 320 g/ha
Summary of the method: as §1

[15] = system: redroot pigweed; test: Test Example 4: herbicidal effect by soil treatment (Table 19, symbol N); assay type: in vivo, redroot pigweed (Amaranthus retroflexus); details: amount of applied herbicide 320 g/ha
Summary of the method: as §1

[16] = system: Japanese bulrush; test: Test Example 1: herbicidal activity, application before weed generation under submerged conditions (Table 16, symbol B); assay type: in vivo, Japanese bulrush (Schoenoplectus juncoides); details: amount of applied herbicide 320 g/ha
Summary of the method: as §4

[17] = system: lambsquarters; test: Test Example 5: herbicidal effect by foliage application, plastic box (Table 20, symbol O); assay type: in vivo, lambsquarters (Chenopodium album); details: for O: lambsquarters, herbicidal effect grade: foliage application, three weeks after application
Summary of the method: as §2

[18] = amount of applied herbicide 320 g/ha, foliage application after 14-day growth, evaluated three weeks after application
[19] = 320 g/ha, foliage application after 14-day growth, evaluated three weeks after application

Compound | Herbicidal effect by soil treatment, F: southern crabgrass [1] | Herbicidal effect by soil treatment, H: barnyard grass [2] | herbicidal effect on barnyard grass (H) [3] | herbicidal effect rating, B: Japanese bulrush [8] | herbicidal effect rating, A: late watergrass [11] | Herbicidal effect, C: oval-leafed pondweed [12] | Herbicidal effect by soil treatment, P: chickweed [13] | Herbicidal effect by soil treatment, J: blackgrass [14] | Herbicidal effect by soil treatment, N: redroot pigweed [15] | Herbicidal effect, B: Japanese bulrush [16] | I: wild oat, herbicidal effect grade ([4]; 320 g/ha) | J: blackgrass, herbicidal effect grade ([5]; 320 g/ha) | N: redroot pigweed, herbicidal effect grade ([6]; 320 g/ha) | F: southern crabgrass, herbicidal effect grade ([7]; 320 g/ha) | G: green foxtail, herbicidal effect grade ([9]; 320 g/ha) | R: persian speedwell, herbicidal effect grade ([10]; 320 g/ha) | O: lambsquarters, herbicidal effect grade ([17]; 320 g/ha) | further results
Cc1nn(C)c(=O)c(-c2c(-c3ccc(Cl)cc3)sc3c(C)cccc23)c1O [4-102] | 0 (Herbicidal rate of 5% or less (almost no effect)) | 0 (Herbicidal rate of 5% or less (almost no effect)) | 1 (Herbicidal rate of 5% or more and less than 20%) | 0 (Herbicidal rate of 5% or less (almost no effect)) | 2 (Herbicidal rate of 20% or more and less than 40%) | 0 (Herbicidal rate of 5% or less (almost no effect)) | 0 (Herbicidal rate of 5% or less (almost no effect)) | 0 (Herbicidal rate of 5% or less (almost no effect)) | 4 (Herbicidal rate of 70% or more and less than 90%) | 0 (Herbicidal rate of 5% or less (almost no effect)) | – | – | – | – | – | – | – | Herbicidal effect by foliage application, I: wild oat [4, 18]: 0 (Herbicidal rate of 5% or less (almost no effect)); Herbicidal effect by foliage application, J: blackgrass [5, 18]: 0 (Herbicidal rate of 5% or less (almost no effect)); Herbicidal effect by foliage application, N: redroot pigweed [6, 18]: 5 (Herbicidal rate of 90% or more (almost completely withered)); Herbicidal effect by foliage application, F: southern crabgrass [7, 18]: 0 (Herbicidal rate of 5% or less (almost no effect)); Herbicidal effect by foliage application, G: green foxtail [9, 18]: 0 (Herbicidal rate of 5% or less (almost no effect)); Herbicidal effect by foliage application, R: persian speedwell [10, 18]: 5 (Herbicidal rate of 90% or more (almost completely withered)); Herbicidal effect by foliage application, O: lambsquarters [17, 18]: 4 (Herbicidal rate of 70% or more and less than 90%)
CCCC(=O)Oc1c(C)nn(C)c(=O)c1-c1c(-c2ccc(C#N)cc2)sc2c(Cl)cccc12 [4-032] | 0 (Herbicidal rate of 5% or less (almost no effect)) | 0 (Herbicidal rate of 5% or less (almost no effect)) | 4 (Herbicidal rate of 70% or more and less than 90%) | 3 (Herbicidal rate of 40% or more and less than 70%) | 0 (Herbicidal rate of 5% or less (almost no effect)) | 0 (Herbicidal rate of 5% or less (almost no effect)) | 3 (Herbicidal rate of 40% or more and less than 70%) | 0 (Herbicidal rate of 5% or less (almost no effect)) | 3 (Herbicidal rate of 40% or more and less than 70%) | 2 (Herbicidal rate of 20% or more and less than 40%) | – | – | – | – | – | – | – | herbicidal effect on I: wild oat (evaluation grade 0-5) [4, 19]: 0 (Herbicidal rate of 5% or less (almost no effect)); herbicidal effect on J: blackgrass (evaluation grade 0-5) [5, 19]: 0 (Herbicidal rate of 5% or less (almost no effect)); herbicidal effect on N: redroot pigweed (evaluation grade 0-5) [6, 19]: 5 (Herbicidal rate of 90% or more (almost completely withered)); herbicidal effect on F: southern crabgrass (evaluation grade 0-5) [7, 19]: 0 (Herbicidal rate of 5% or less (almost no effect)); herbicidal effect on G: green foxtail (evaluation grade 0-5) [9, 19]: 0 (Herbicidal rate of 5% or less (almost no effect)); herbicidal effect on R: persian speedwell (evaluation grade 0-5) [10, 19]: 5 (Herbicidal rate of 90% or more (almost completely withered)); herbicidal effect on O: lambsquarters (evaluation grade 0-5) [17, 19]: 3 (Herbicidal rate of 40% or more and less than 70%)
CCCC(=O)Oc1c(C)nn(C)c(=O)c1-c1c(-c2ccc(C(F)(F)F)cc2)sc2cc(F)ccc12 [3-140] | 0 (Herbicidal rate of 5% or less (almost no effect)) | 0 (Herbicidal rate of 5% or less (almost no effect)) | 5 (Herbicidal rate of 90% or more (almost completely withered)) | 3 (Herbicidal rate of 40% or more and less than 70%) | 3 (Herbicidal rate of 40% or more and less than 70%) | 3 (Herbicidal rate of 40% or more and less than 70%) | 0 (Herbicidal rate of 5% or less (almost no effect)) | 0 (Herbicidal rate of 5% or less (almost no effect)) | 4 (Herbicidal rate of 70% or more and less than 90%) | 3 (Herbicidal rate of 40% or more and less than 70%) | 2 (Herbicidal rate of 20% or more and less than 40%) | 0 (Herbicidal rate of 5% or less (almost no effect)) | 5 (Herbicidal rate of 90% or more (almost completely withered)) | 1 (Herbicidal rate of 5% or more and less than 20%) | 2 (Herbicidal rate of 20% or more and less than 40%) | 5 (Herbicidal rate of 90% or more (almost completely withered)) | 4 (Herbicidal rate of 70% or more and less than 90%) | –
CCCC(=O)Oc1c(CC)nn(C)c(=O)c1-c1c(-c2ccc(C(F)(F)F)cc2)sc2ccc(F)cc12 [2-411] | – | – | – | 0 (Herbicidal rate of 5% or less (almost no effect)) | 3 (Herbicidal rate of 40% or more and less than 70%) | 0 (Herbicidal rate of 5% or less (almost no effect)) | – | – | – | 0 (Herbicidal rate of 5% or less (almost no effect)) | 0 (Herbicidal rate of 5% or less (almost no effect)) | 0 (Herbicidal rate of 5% or less (almost no effect)) | 5 (Herbicidal rate of 90% or more (almost completely withered)) | 3 (Herbicidal rate of 40% or more and less than 70%) | 3 (Herbicidal rate of 40% or more and less than 70%) | 5 (Herbicidal rate of 90% or more (almost completely withered)) | 4 (Herbicidal rate of 70% or more and less than 90%) | herbicidal effect, F: southern crabgrass [1]: 0 (Herbicidal rate of 5% or less (almost no effect)); herbicidal effect, H: barnyard grass [2]: 0 (Herbicidal rate of 5% or less (almost no effect)); herbicidal effect on H: barnyard grass ([3]; amount of applied herbicide 320 g/ha): 5 (Herbicidal rate of 90% or more (almost completely withered)); herbicidal effect, P: chickweed [13]: 1 (Herbicidal rate of 5% or more and less than 20%); herbicidal effect, J: blackgrass [14]: 0 (Herbicidal rate of 5% or less (almost no effect)); herbicidal effect, N: redroot pigweed [15]: 0 (Herbicidal rate of 5% or less (almost no effect))
